# According to patent publication US7390788B2, “Peptide pharmaceutical compositions” (priority 2005, dated 2008):
# Like-named read-outs stand apart in the source and are kept apart here.
# Tests used:
# [1] = DAPTA fibril formation / aggregation in solution by EM (Example 3); assay type: physicochemical
# Method: Preparation of DAPTA solutions. DAPTA was dissolved in water, and solutions maintained at various temperatures and times. To prepare fibrils, DAPTA was prepared at 10 mgs/mL in water and stored overnight at 4° C.
# Determining fibril formation.
# In solution, DAPTA can be shown to form ordered aggregates by EM, FTIR, and CD and dye binding. Aggregation is promoted by concentration, increased ionic strength, and reduced temperature. Although the kinetics of aggregation appear to vary, from preparation to preparation, aggregation appears to be a property associated with all batches of DAPTA examined as measured by EM.
# Fibrillization can be observed in solutions prepared in 0.9% saline (10 mg/mL) when stored at 4° C. in less than 1 hour. At room or ambient temperature, fibril formation can be observed within 48 hours, although there is variation from preparation to preparation. In distilled water, DAPTA solutions at 10 mg/ml readily form aggregates at 4 deg. C., within 2 hrs, and at room temperature, within 1-7 days.
# [2] = test system: HIV BaL; assay type: cell-based, HIV-1; settings: dried
# Method: Peptide was dissolved at 5 mg/ml in water, stored at ambient temperature, ca 23-27° C., and samples tested for biological activity in an HIV infection assay.
# Inhibition of HIV infection is studied by utilizing an infection assay in which GHOST CD4 CCR5 cells are infected with HIV BaL, an R5 tropic isolate (Ruff, M R et al., 2001). Infection is detected via viral induction of the hGFP gene (green fluorescent protein) 48 hrs post-infection. Trays are measured in a plate reader to determine fluorescence intensity. All infections are performed by adding fresh culture medium containing approximately 1,000 infectious units of HIV-1 per well (96-well plates).
# Samples were then aged by storage at ambient temperature (ca 25° C.) for 14 days prior to antiviral testing. […] In FIG. 5, only the short term 6 hour sample is stored at 4° C., while the other samples are stored at 37° C.
# The peptide was dissolved in the indicated concentration of TFE in water and then shaken or agitated for 24 hrs at 37° C. The peptide was subsequently dried down, and the TFE/water mixture removed under vacuum. […] Although TFE is removed, residual traces of TFE within acceptable range for human consumption may remain.
# Inhibition of HIV infection was studied by utilizing an infection assay using GHOST CD4 as previously described by Ruff, M R et al., 2001. CCR5 cells are infected with HIV BaL, an R5 tropic isolate. Infection is detected via viral induction of the hGFP gene (green fluorescent protein) about 48 hours post-infection. Trays were measured in a plate reader to determine fluorescence intensity. All infections were performed by adding fresh culture medium containing approximately 1,000 infectious units of HIV-1 per well (96-well plates).
# [3] = test system: HIV; experiment: Inhibition of HIV infectivity in vitro by stored DAPTA solutions; assay type: cell-based
# Method: Aggregation is discovered to be associated with a loss of biological activity in vitro. Typically, the recommended protocol is to have DAPTA stored at 0.1 mM solutions in water at 4° C.
# Aggregation is reduced in the presence of trifluoroethanol (TFE). TFE was selected because of its property of reducing certain types of protein-protein interactions. DAPTA was dissolved in either distilled water, or solutions containing between 60% and 100% TFE. Aggregation was evaluated by assaying inhibition of HIV infectivity, in vitro. […] Also, TFE is capable of disassociating preformed aggregates of DAPTA. Aggregates of DAPTA, formed in distilled water were disrupted by addition of TFE to 80%, as measured by EM.
# [4] = test system: envelop (gp120); settings: 1987 report; cited from earlier work
# [5] = Phase I, human; cited from earlier work
# [6] = test system: HIV; settings: cited from earlier work
# [7] = 6 mg/day for 12 weeks; cited from earlier work
# [8] = 2 mg three times daily intranasally, cited from earlier work
# [9] = cited from earlier work
# [10] = patients with moderate neuro-psychological impairment; cited from earlier work
# [11] = subcutaneously, cited from earlier work
# [12] = test system: nasal mucosa; settings: in vivo; cited from earlier work
# [13] = test system: isolated nasal cilia; settings: cited from earlier work
substance,measurement,setting,value
D-ala^1-peptide T-amide [DAPTA],Time until fibrillization can be observed,"[1]; 0.9% saline, 10 mg/mL, 4° C.",less than 1 hour
same,Time until fibril formation can be observed,"[1]; 0.9% saline, 10 mg/mL, room or ambient temperature",≤ 48 h
same,"Effect of TFE on preformed aggregates, by EM","[1]; aggregates formed in distilled water, TFE added to 80%",disrupted
same,Time until aggregates form,"[1]; distilled water, 10 mg/ml, 4 deg. C.",≤ 2 h
same,Percent Reduction in HIV Infection,"[2]; 0.1 nM DAPTA, TFE Concentration 40 %, shaken 24 hrs at 37° C., reconstituted in water, stored about 3 days",0 ± 2%
same,Percent Reduction in HIV Infection,"[2]; 0.1 nM DAPTA, TFE Concentration 60 %, shaken 24 hrs at 37° C., reconstituted in water, stored about 3 days",20 ± 4%
same,Percent Reduction in HIV Infection,"[2]; 0.1 nM DAPTA, TFE Concentration 100 %, shaken 24 hrs at 37° C., reconstituted in water, stored about 3 days",98 ± 3%
same,Percent Reduction in HIV Infection,"[2]; 80% TFE, shaken 12 hrs at 37 degrees Celsius, in water about three days",70 ± 4%
same,Percent Reduction in HIV Infection,"[2]; 80% TFE, shaken 48 hrs at 37 degrees Celsius, in water about three days",100 ± 3%
same,Percent Reduction in HIV Infection,"[2]; 80% TFE, shaken about 24 hours at 37 ° C., in water about three days",100 ± 5%
same,Percent Reduction in HIV Infection,"[2]; 80% TFE, shaken about 24 hours at Room Temp., in water about three days",70 ± 6%
same,Storage time to substantial loss of activity (HIV uptake inhibition in vitro),[3]; 0.1 mM solutions in water at 4° C.,about 6 weeks
same,Activity retained on storage (inhibition of HIV infectivity in vitro),[3]; stored in TFE between 60% and 100% vs water,retained more activity
same,Concentration that blocks envelop (gp120) binding and inhibits viral infectivity,[4],10 pM
same,Toxicity,[5],complete lack of toxicity
same,Virus levels in stored frozen plasma,[6]; blind NIMH analysis,significant (p<0.04) treatment effect
same,Clinical benefits versus placebo,[6]; more cognitively impaired patients,significant clinical benefits versus placebo
same,Treatment of painful peripheral neuropathy vs placebo,[7],no statistically significant differences
same,Neuropsychological performance vs placebo,[8]; at least four months of treatment,no difference
same,Neuropsychological improvement after adjustment for baseline CD4 count,[8],greater improvement (p=0.07)
same,Patients with improved neuro-psychological performance,[9]; high dose (15 mg daily),4/5
same,Patients with improved neuro-psychological performance,[9]; low dose (1.5 mg daily),1/4
same,Cognitive and neuromotor function compared with controls,[10],improved
same,Adverse drug effects,[11]; 3 to 70 weeks,No adverse drug effects were noted
same,Lower limb pain,"[11]; initial dose 10 mg daily, nine individuals",complete or subjectively significant resolution of lower limb pain
benzalkonium chloride [BAC],Damage to the nasal mucosa,[12],no significant damage
same,Mucosal ciliary clearance after application,[12],slight prolongation
same,Nasal mucosal function,[12],no detectable effect
same,Saccharine transport time or indicators of proinflammatory effects,[12],did not alter
same,Ciliotoxicity,[13],ciliotoxic
